Source: a melting point compilation (Tetko et al.; mined from patent text by program, amines drawn as free bases though some values may be those of a salt)

SMILES	melting point [°C]
COc1ccc(C(c2ccc(OC)cc2)c2cnccc2C(=O)NC23CC4CC(CC2C4)C3)cc1	110 to 112
CN(C)CCOc1ccc(N(C(=O)c2ccc(F)cc2)c2ccccc2)cc1	88.5 to 90
COc1ccc2c(c1)C(c1ccc(OCCN3CCCCC3)cc1)c1c-2ccc2cc(OC)ccc12 (configuration not stated)	162 to 164
O=C(c1nn(-c2ccc(F)cc2F)c2c1C1CCC2C1)N1CCCc2ccccc21 (configuration not stated)	103 to 107
O=[N+]([O-])c1ccc2c(c1)C(O)Cc1ccc(F)cc1S2 (configuration not stated)	149 to 151
CC(=O)SCC(C(=O)NC(C)C(=O)OCc1ccccc1)C1CCc2ccccc21 (configuration not stated)	95
CC(=O)N1c2ccc([N+](=O)[O-])cc2CC1C(C)(C)C (configuration not stated)	99
CC(=O)Nc1cc2c(Nc3ccc(Sc4nccn4C)c(Cl)c3)c(C#N)cnc2cc1N1CCC(N2CCCC2)CC1	243 to 255
O=C(OCc1ccccc1)N1C=CC(c2cccc(Cl)c2Cl)C=C1	69 to 70
CC1CCC(c2cccc(NC(=O)N3CCC4(CC3)OCCO4)c2)(N2CCN(c3ccccc3)CC2)CC1 (configuration not stated)	245 to 247
CC1Nc2ccc(-c3csc(C#N)c3)cc2C(C)(C)O1 (configuration not stated)	175 to 176
CCOC(=O)C1(C)C(=O)Nc2cc3[nH]c(-c4cnccn4)nc3cc21 (configuration not stated)	288 to 290
CN(Cc1nc(-c2cc(C(C)(C)C)c(O)c(C(C)(C)C)c2)cs1)C(=O)OC(C)(C)C	126 to 127
CCOc1cc(N(CC)CC)ccc1C1(N(c2ccccc2)c2ccc(NC(C)=O)cc2)OC(=O)c2ccccc21 (configuration not stated)	126 to 131
CCOC(=O)C1=C(C)NC(c2cscn2)=NC1c1ccc(O)cc1 (configuration not stated)	213 to 216
Cc1cccc(NC(=O)NC2N=C(C3CCCC3)c3ccccc3N(CC(=O)N3CC4CCC(CC4)C3)C2=O)c1 (racemic)	132 to 134
O=C1CNc2cccc(Oc3cc(-c4ccc(C(F)(F)F)cc4)ncn3)c2N1	305
C=C(F)C(=O)Oc1ccc(C#N)cc1	78 to 79
CC1(C)CCC(NC(N)=O)CC1	174 to 176
CCOC(=O)C1CN(C(=O)c2cc(OC)c(OC)c(OC)c2)CCN1C(=O)c1cc(OC)c(OC)c(OC)c1 (configuration not stated)	130
S=C1CNc2ccccc2CN1	150 to 153
CN(O)C(=O)C=Cc1ccc(F)cc1	141 to 142
CC(=O)SCCS(=O)(=O)N1CCC[C@H]1C(=O)O	63 to 67
ON=Cc1cc(Br)ccc1Cl	126 to 128
CC(C)(C)OC(=O)NCCOc1noc2ccc(Cl)cc12	106 to 107

SMILES	melting point [°C]
CCOC(=O)C(CO)NC(=O)C(N)(CC(=O)O)NC(=O)C(C)C (configuration not stated)	175 to 178
CCCCC(CC)n1nnc2c(Nc3c(Cl)cc(OC)cc3OC)nc(C)cc21 (configuration not stated)	155 to 156
CN1CCC(C2c3sccc3C=Cn3ncnc32)CC1 (configuration not stated)	137
COc1cc(Cl)nnc1NS(=O)(=O)c1ccc(Cl)s1	120 to 122
N#Cc1ccc(Oc2ncccc2C(=O)O)cc1	198 to 200
CCCCCOc1ccc2cc(CCC(N)(CO)CO)ccc2c1	106 to 109
CCCN(CCC)C1CNc2c(cc(Br)cc2[N+](=O)[O-])C1 (configuration not stated)	88 to 91
O=S(=O)(NCCCCOc1ccc(-n2ccnc2)cc1)c1cccc2nonc12	125 to 126
N#Cc1ccc(NC(=CNCC(=O)O)[N+](=O)[O-])cc1	230
Cc1nc2sc3ccccc3n2n1	75 to 76
O[C@H]1c2cc(OCc3cccnc3)ccc2OC[C@H]1Cc1cccnc1 (relative stereo)	145 to 147
NC(=O)c1ccccc1OCC1CC1	102 to 105
Cc1c(Cl)nc(-c2ccc([N+](=O)[O-])o2)nc1Cl	174 to 175
CCOCCOCCOc1cc(N2C(=O)C3=C(CCCC3)C2=O)c(F)cc1Cl	61
CCOC(=O)C(O[Si](C)(C)C)C(O[Si](C)(C)C)c1cc(OC)c(OC)cc1[N+](=O)[O-] (configuration not stated)	151 to 153
NC(=O)C(CCc1ccccc1)NC(=O)c1ccc2[nH]c(-c3ccccc3)c(-c3ccccc3)c2c1 (configuration not stated)	120 to 125
Cc1nnc2n1-c1sc(C(C)OC(=O)C(C)(C)C)cc1C(c1ccccc1Cl)=NC2 (configuration not stated)	148 to 151
COc1ccc(/C=C/CO)cc1OCc1nc(-c2ccccc2)oc1C	137 to 138
Nc1cc(=O)n2cc(Cl)c(C(c3c(F)ccc(F)c3F)S(=O)(=O)CCC(F)(F)F)cc2n1 (configuration not stated)	247
CCOC(=O)c1c(C)nn(C)c1S(=O)(=O)NC(=S)Nc1nc(C)cc(OC)n1	157 to 158
O=C(O)c1ccccc1CNC1CCOC1=O (configuration not stated)	112 to 114
Cc1ccc(CNC(=O)C2=C3N(CCC2=O)c2ccccc2N3CCN(C)C)cc1	120 to 122
O=C1CCC(N2Cc3c(OCc4ccc(CN5CCC(c6cccc(F)c6)CC5)cc4)cccc3C2=O)C(=O)N1 (configuration not stated)	200 to 202
CN1CCN(c2ccccc2C=C2NC(=O)N(c3ccc(Cl)cc3)C2=O)CC1	193 to 194
Cc1cc(Oc2[nH]c(=O)[nH]c(=O)c2C(C)C)cc(C2OCCO2)c1	201 to 203

SMILES	melting point [°C]
CC(=O)N(CC(=O)O)c1ccc(C)cc1C	165 to 172
CC(C)n1nc(-c2c(OCc3ccccc3)nc(N)nc2-c2ccccc2)ccc1=O	162 to 163
O=C(CN1C(=O)[C@H](Cl)[C@H]1[S@@](=O)Cc1ccccc1)NCCCCCCc1ccc(F)cc1	87 to 89
O=C(O)c1cccc(Nc2nc(Oc3ccccc3)nc(Oc3cccc([N+](=O)[O-])c3)n2)c1	225 to 228
O=C(CSC(=S)N1Cc2[nH]c3ccccc3c2CC1C(=O)O)c1ccccc1 (configuration not stated)	116
CN1C(=O)c2cccc(C(F)(F)F)c2Sc2ccccc21	139 to 141
Cc1nnsc1C(=O)NS(=O)(=O)c1ccc(Cl)cc1	165
Fc1ccc2c(c1)CC(n1cc[nH]c1=S)CC2 (configuration not stated)	215 to 217
COC(=O)c1ccc(OCC2CC(=O)N(c3ccc(OS(C)(=O)=O)cc3)C2)cc1 (configuration not stated)	111 to 113
CCC(=O)NC(C)(C)C	90 to 92
O=C(N[C@H]1C[C@H](C(=O)O)Nc2cc(Cl)cc(Cl)c21)C1c2ccccc2-c2ccccc21 (relative stereo)	266 to 268
Cc1nc(N2CCN(Cc3nc(C)n(-c4ccccc4)n3)C2=O)sc1C(=O)NCc1ccccc1	139 to 141
CC(C)(C)c1cc(CCC(=O)OC2CC(C)(C)N(OC3CCCCC3)C(C)(C)C2)cc(-n2nc3ccc(Cl)cc3n2)c1O	130 to 136
N#Cc1c(N2CCN(C(=O)c3cccs3)CC2)c2cccnc2n(CC(=O)c2ccccc2)c1=O	269
CC(C)C[C@@H](CO)NC(=O)[C@H](Cc1c[nH]cn1)N(C(=O)[C@H](Cc1cccc2ccccc12)NC(=O)OCc1ccccc1)C(=O)[C@@H](N)Cc1cccc2ccccc12	199 to 200
Cn1nc(C(F)(F)F)cc1Oc1cc(C#N)cc(OCc2ccc(F)cc2F)n1	109
CC(C)(C)C(=O)c1c[nH]c2ncc(-c3ccc(C(=O)NC4CCCC4)s3)nc12	> 300
CCOC(=O)c1ccc(COCc2csc3nc(C(=O)NCc4ccnc(OCC5CCOC5)c4)[nH]c(=O)c23)cc1 (configuration not stated)	225
C=C(C)CCOc1c(-c2ccc(S(C)(=O)=O)cc2)cnn(-c2cccc(Cl)c2)c1=O	110 to 112
Cc1c(C(=O)Nc2ccc(CN3CCC(N4CCOCC4)CC3)c(C#N)c2)cnn1-c1ccc(Cl)cc1	167 to 168
Nc1ccc2c(c1)Sc1ccccc1N2	150 to 156
CCOC(=O)c1c(C)c(C(=O)O)c(C)n1C	197 to 198
O=C(Nc1nccs1)c1cn(CC2CCCCC2)c2cc(Cl)ccc12	181 to 183
Nc1n[nH]c2ccc(Br)cc12	165 to 175
CCC(=O)OCOC(=O)C1=C(C)NC(C)=C(C(=O)OC)C1c1cccc(Cl)c1Cl (configuration not stated)	124 to 126

SMILES	melting point [°C]
CCCCOC(=O)c1ccc(C(F)(F)F)cc1Cl	90
Cn1c(=O)c(C(=O)O)c(-c2ccccc2)c2cc(Cl)ccc21	242 to 243
CCOC(=O)c1c(Cl)nc(CC)n1Cc1ccc2oc(-c3ccccc3N)c(Br)c2c1	53 to 56
CC(C(C=Cc1ccc(Cl)cc1)OCc1ccc(Cl)cc1)n1cncn1 (configuration not stated)	91
CC(O)(C(=O)Nc1ccc(S(=O)(=O)F)cc1)C(F)(F)F (configuration not stated)	152 to 154
Cc1c(O)c(=O)ccn1CCCCCO	136 to 138
CS(=O)(=O)Nc1ccc(CCCOCCCCCCNCC(O)c2cc(O)cc(O)c2)cc1 (configuration not stated)	66 to 69
Cc1ccc(-c2ccnc3c(C(=O)c4cccs4)cnn23)cc1NC(=O)NC(C)C	225 to 227
Cc1ncn(-c2cc(C(Cl)(Cl)Cl)c3cc(C(Cl)(Cl)Cl)ccc3n2)n1	169 to 170
O=C(CCCC(=O)Oc1cc(O)cc(O)c1)Oc1cc(O)cc(O)c1	205 to 208
CCCCCCCCC(=O)Nc1cccc([N+](=O)[O-])c1	63 to 63.5
Nc1nc(N)c2ncn(C(O)C3C=CCC3)c2n1 (configuration not stated)	152 to 155
CC(=O)NN(C(C)=O)[C@@H]1c2cc(C#N)ccc2OC(C)(C)[C@H]1O (relative stereo)	206 to 207
CCOc1ccc(-c2nc(CCC(=O)OC)cs2)cc1OCC	58.1 to 58.3
CC(C)CC1(CC(=O)NO)CCN(CCc2ccccc2)C1=O (configuration not stated)	123 to 124
O=C1c2cc(Cl)ccc2NCN1CCN1CCOCC1	82
COc1cc(/C=C2/C(=O)OC(=O)C2=C(C)C)cc(OC)c1	161 to 162
O=c1oc(=O)n(Cc2ccc(F)cc2)c2ccccc12	142 to 145
CC12CCC3C(CC=C4CC(O)CCC43C)C1CC(Br)C2=O (configuration not stated)	167 to 168
CNC(=O)c1ccccc1Sc1ccc(COC(C)=O)cc1[N+](=O)[O-]	111 to 113
COc1ccc(C2=CS(=O)CCC2)cc1OC1CCCC1 (configuration not stated)	96 to 98
O=C(Nc1cnc2[nH]ccc2c1)c1cc2cc(F)ccc2n1Cc1cccc(F)c1	266 to 267
